Results on 18 compounds are retold here after patent US8044079B2, “Substituted oxindole derivatives, medicaments containing said derivatives and use thereof” (Abbott GmbH & Co. KG, priority 2005, dated 2011).

Where only a bound is given, the exact number is not on record here.

The assay deals with T1, human vasopressin V1b receptor (Homo sapiens, UniProt P47901).
T1 construct: expressed in transfected cells; host or cells: CHO-K1 (cell line hV1b_3H2_CHO), membrane preparation
T1 sequence (P47901 1-424): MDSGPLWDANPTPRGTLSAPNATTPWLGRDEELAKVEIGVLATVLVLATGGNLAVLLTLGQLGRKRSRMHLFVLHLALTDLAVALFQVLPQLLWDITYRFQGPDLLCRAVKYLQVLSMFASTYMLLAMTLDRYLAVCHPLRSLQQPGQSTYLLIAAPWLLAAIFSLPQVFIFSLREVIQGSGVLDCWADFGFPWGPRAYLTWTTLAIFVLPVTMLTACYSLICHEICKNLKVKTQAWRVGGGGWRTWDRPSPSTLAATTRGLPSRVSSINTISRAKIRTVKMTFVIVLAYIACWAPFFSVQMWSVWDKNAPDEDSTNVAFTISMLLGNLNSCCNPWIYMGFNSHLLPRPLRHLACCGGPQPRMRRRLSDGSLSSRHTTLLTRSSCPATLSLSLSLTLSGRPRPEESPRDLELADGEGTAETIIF
Kind of assay: Vasopressin V1b receptor binding test. As to conditions: membranes of CHO-K1 cells with human V1b receptor, displacement of 1.5 nM 3H-AVP; for compounds with more than one stereogenic center the diastereomer with greater affinity. Put shortly: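 Radioligand displacement on membranes carrying human V1b receptor in 50 mM tris, 10 mM MgCl2, 0.1% BSA, pH 7.4, 2% DMSO final; 60 min at room temperature, nonspecific binding with 1 μM AVP. Free ligand removed by filtration, bound counted by liquid scintillation, Ki from nonlinear regression of triplicates.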

A word on the Ki: it is the equilibrium dissociation constant of an inhibitor or competing ligand from its target. Compound `COc1ccc(S(=O)(=O)N2C(=O)C(c3ccc(CNC(C)C)cc3OC)(N3CCC[C@H]3c3ncco3)c3cc(C#N)ccc32)cc1` (stereo partly drawn) [Example 100, 5-Cyano-3-[4-(isopropylaminomethyl)-2-methoxyphenyl]-1-(4-methoxybenzenesulfonyl)-3-((S)-2-oxazol-2-yl-pyrrolidin-1-yl)-1,3-dihydroindol-2-one] showed a Ki of 10 to 100 nM.
The result for `COc1ccc(S(=O)(=O)N2C(=O)C(c3ccc(CN4CCCC4)cc3OC)(N3CCC[C@H]3c3ncco3)c3cc(C#N)ccc32)cc1` (stereo partly drawn) [Example 101, 5-Cyano-1-(4-methoxybenzenesulfonyl)-3-(2-methoxy-4-(pyrrolidin-1-ylmethyl)phenyl)-3-((S)-2-oxazol-2-yl-pyrrolidin-1-yl)-1,3-dihydroindol-2-one] reads 10 to 100 nM; that for `COc1ccc(S(=O)(=O)N2C(=O)C(c3cc(CN(C)C)ccc3OC)(N3C[C@H](O)C[C@H]3c3ncco3)c3cc(Cl)ccc32)cc1` (stereo partly drawn) [Example 102, 5-Chloro-3-(5-dimethylaminomethyl-2-methoxyphenyl)-3-((2S,4R)-4-hydroxy-2-oxazol-2-yl-pyrrolidin-1-yl)-1-(4-methoxybenzenesulfonyl)-1,3-dihydroindol-2-one], under 10 nM; that for `COc1ccc(S(=O)(=O)N2C(=O)C(c3cc(CN4CCN(C)CC4)ccc3OC)(N3C[C@H](O)C[C@H]3c3ncco3)c3cc(Cl)ccc32)cc1` (stereo partly drawn) [Example 103, 5-Chloro-3-((2S,4R)-4-hydroxy-2-oxazol-2-yl-pyrrolidin-1-yl)-1-(4-methoxybenzenesulfonyl)-3-[2-methoxy-5-(4-methylpiperazin-1-ylmethyl)phenyl]-1,3-dihydroindol-2-one], under 10 nM.
The compound `COc1ccc(S(=O)(=O)N2C(=O)C(c3cc(CN4CCN(C(C)C)CC4)ccc3OC)(N3CCC[C@H]3c3ncco3)c3cc(Cl)c(Cl)cc32)cc1` (stereo partly drawn) [Example 104, 5,6-Dichloro-3-[5-(4-isopropylpiperazin-1-ylmethyl)-2-methoxyphenyl]-1-(4-methoxybenzenesulfonyl)-3-((S)-2-oxazol-2-yl-pyrrolidin-1-yl)-1,3-dihydroindol-2-one] displayed a Ki of 10 to 100 nM.
The result for `CNCc1ccc(OC)c(C2(N3C[C@H](O)C[C@H]3c3ncco3)C(=O)N(S(=O)(=O)c3ccc(OC)cc3)c3ccc(Cl)cc32)c1` (stereo partly drawn) [Example 105, 5-Chloro-3-((2S,4R)-4-hydroxy-2-oxazol-2-yl-pyrrolidin-1-yl)-1-(4-methoxybenzenesulfonyl)-3-(2-methoxy-5-(methylaminomethyl)phenyl)-1,3-dihydroindol-2-one] reads under 10 nM.
Regarding `COc1ccc(S(=O)(=O)N2C(=O)C(c3cc(CNC(C)(C)C)ccc3OC)(N3CCC[C@H]3c3ncco3)c3cc(Cl)c(Cl)cc32)cc1` (stereo partly drawn) [Example 106, 5,6-Dichloro-3-[5-(tert-butylaminomethyl)-2-methoxyphenyl]-1-(4-methoxybenzenesulfonyl)-3-((S)-2-oxazol-2-yl-pyrrolidin-1-yl)-1,3-dihydroindol-2-one], the Ki was in the range of 10 to 100 nM.
As for `COc1ccc(S(=O)(=O)N2C(=O)C(c3cc(CN4CCN(CCO)CC4)ccc3OC)(N3CCC[C@H]3c3ncco3)c3cc(Cl)c(Cl)cc32)cc1` (stereo partly drawn) [Example 107, 5,6-Dichloro-3-{5-[4-(2-hydroxyethyl)piperazin-1-ylmethyl]-2-methoxyphenyl}-1-(4-methoxybenzenesulfonyl)-3-((S)-2-oxazol-2-yl-pyrrolidin-1-yl)-1,3-dihydroindol-2-one], the figure is 10 to 100 nM; as for `COc1ccc(S(=O)(=O)N2C(=O)C(NCc3ncco3)(c3cc(CN(C)C)ccc3OC)c3cc(Cl)ccc32)cc1` (stereo not drawn) [Example 108, 5-Chloro-3-(5-dimethylaminomethyl-2-methoxyphenyl)-1-(4-methoxybenzenesulfonyl)-3-[(oxazol-2-ylmethyl)amino]-1,3-dihydroindol-2-one], 10 to 100 nM; as for `COc1ccc(S(=O)(=O)N2C(=O)C(NCc3ncco3)(c3cc(CN4CCCC4)ccc3OC)c3cc(Cl)ccc32)cc1` (stereo not drawn) [Example 109, 5-Chloro-1-(4-methoxybenzenesulfonyl)-3-(2-methoxy-5-pyrrolidin-1-ylmethylphenyl)-3-[(oxazol-2-ylmethyl)amino]-1,3-dihydroindol-2-one], 10 to 100 nM.
The result for `COc1ccc(S(=O)(=O)N2C(=O)C(NCc3ncco3)(c3cc(CN4CCN(C)CC4)ccc3OC)c3cc(Cl)ccc32)cc1` (stereo not drawn) [Example 110, 5-Chloro-1-(4-methoxybenzenesulfonyl)-3-[2-methoxy-5-(4-methylpiperazin-1-ylmethyl)phenyl]-3-[(oxazol-2-ylmethyl)amino]-1,3-dihydroindol-2-one] reads 10 to 100 nM.
The result for `COc1ccc(S(=O)(=O)N2C(=O)C(NCc3ncco3)(c3cc(CNCCO)ccc3OC)c3cc(Cl)ccc32)cc1` (stereo not drawn) [Example 111, 5-Chloro-3-{5-[(2-hydroxyethylamino)methyl]-2-methoxyphenyl}-1-(4-methoxybenzenesulfonyl)-3-[(oxazol-2-ylmethyl)amino]-1,3-dihydroindol-2-one] reads 10 to 100 nM; that for `COc1ccc(S(=O)(=O)N2C(=O)C(c3cc(CN4CCNCC4)ccc3OC)(N3C[C@H](O)C[C@H]3c3ncco3)c3cc(Cl)ccc32)cc1` (stereo partly drawn) [Example 113, 5-Chloro-3-((2S,4R)-4-hydroxy-2-oxazol-2-yl-pyrrolidin-1-yl)-1-(4-methoxybenzenesulfonyl)-3-(2-methoxy-5-(piperazin-1-ylmethyl)phenyl)-1,3-dihydroindol-2-one], under 10 nM; that for `COc1ccc(S(=O)(=O)N2C(=O)C(c3cc(CN4CCCC4)ccc3OC)(N3C[C@H](O)C[C@H]3c3ncco3)c3cc(Cl)ccc32)cc1` (stereo partly drawn) [Example 114, 5-Chloro-3-((2S,4R)-4-hydroxy-2-oxazol-2-yl-pyrrolidin-1-yl)-1-(4-methoxybenzenesulfonyl)-3-(2-methoxy-5-(pyrrolidin-1-ylmethyl)phenyl)-1,3-dihydroindol-2-one], under 10 nM.
Compound `CCCNCc1ccc(OC)c(C2(N3C[C@H](O)C[C@H]3c3ncco3)C(=O)N(S(=O)(=O)c3ccc(OC)cc3)c3ccc(Cl)cc32)c1` (stereo partly drawn) [Example 115, 5-Chloro-3-((2S,4R)-4-hydroxy-2-oxazol-2-yl-pyrrolidin-1-yl)-1-(4-methoxybenzenesulfonyl)-3-(2-methoxy-5-(propylaminomethyl)phenyl)-1,3-dihydroindol-2-one] yielded an inhibitory constant (Ki) of under 10 nM.
`CCCNCc1ccc(OC)c(C2(N3CCC[C@H]3c3ncco3)C(=O)N(S(=O)(=O)c3ccc(OC)cc3)c3ccc(Cl)cc32)c1` (stereo partly drawn) [Example 116, 5-Chloro-1-(4-methoxybenzenesulfonyl)-3-(2-methoxy-5-(propylaminomethyl)phenyl)-3-((S)-2-oxazol-2-yl-pyrrolidin-1-yl)-1,3-dihydroindol-2-one] yielded a Ki of under 10 nM.
As for `COc1ccc(S(=O)(=O)N2C(=O)C(c3cc(CN(C)C)ccc3OC)(N3CCCC3c3nccs3)c3cc(Cl)ccc32)cc1` (stereo not drawn) [Example 117, 5-Chloro-3-(5-dimethylaminomethyl-2-methoxyphenyl)-1-(4-methoxybenzenesulfonyl)-3-(2-thiazol-2-yl-pyrrolidin-1-yl)-1,3-dihydroindol-2-one], the figure is 10 to 100 nM; as for `COc1ccc(S(=O)(=O)N2C(=O)C(c3cc(CN4CCCC4)ccc3OC)(N3CCCC3c3nccs3)c3cc(Cl)ccc32)cc1` (stereo not drawn) [Example 118, 5-Chloro-1-(4-methoxybenzenesulfonyl)-3-(2-methoxy-5-(pyrrolidin-1-ylmethyl)phenyl)-3-(2-thiazol-2-yl-pyrrolidin-1-yl)-1,3-dihydroindol-2-one], 10 to 100 nM.
